The source of these data is patent publication US20050090522A1 (priority 2001, published 2005).

One data set deals with HIV-1. Description: HIV-1 single-round infectious luciferase reporter virus (pseudotype) assay in HeLa CD4 CCR5 cells. In kind it is cell-based. In a few lines: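 Reporter pseudovirus produced in 293 cells infected HeLa cells expressing CD4/CCR5 at MOI ~0.01, with compound present at <10 μM final. Infection was quantified as luciferase luminescence after 72 h.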
For orientation: Reporter assays use an easily measured gene product as a stand-in for the process of interest.

The subject of the next data set is HeLa cells. Put plainly: Cytotoxicity assay in HeLa cells (MTT dye reduction, CC50). The settings on record: cytotoxicity; Yes = CC50 above 100 uM, No = not. A digest of the protocol:
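HeLa cells expressing CD4 and CCR5, grown in DMEM with 10% FBS, were used for cytotoxicity testing by MTT dye reduction; the text gives no further cytotoxicity conditions. The parallel antiviral assay exposed the same cells to compound at final <10 μM for 72 h.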
Background: Formazan colour is commonly taken as a measure of viable cells.

Data set [1] is described as follows: Metabolic stability in pooled human liver microsomes (HLM). The settings on record: pooled human liver microsomes, 3 μM drug; Low/Intermediate/High. In a few lines:
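Pooled human liver microsomes (0.9 mg/ml final) in 0.1 M potassium phosphate pH 7.4 with 0.033 mM MgCl2 and an NADPH-regenerating system. Compound pre-incubated 2 min, reaction started with cofactors, run 10 min at 37° C, quenched in acetonitrile and analysed by LC/MS.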

Data set [2] can be described thus: Rat IV and PO pharmacokinetic studies. The conditions noted are these: male, Sprague-Dawley, in vivo; for clearance: iv, 1 mg/kg, CL, iv dosing at 1 mg/kg; for AUC(0-t): po, 5 mg/kg, AUC 24 h, oral dosing at 5 mg/kg. The protocol: Rat Pharmacokinetic Studies: For the IV and PO pharmacokinetic studies of compounds in rats, the compound was dissolved in PEG-400/ethanol (90/10) as a solution. Rat. Male Sprague-Dawley rats (300-350 g, Hilltop Lab Animals, Inc., Scottdale, Pa.) with cannulas implanted in the jugular vein were used. The rats were fasted overnight in the PO pharmacokinetic studies. Blood samples of 0.3 ml were collected from the jugular vein in EDTA-containing microtainer tubes (Becton Dickinson, Franklin Lakes, N. J.), and centrifuged to separate plasma. In the IV study, the test compound was delivered at 1 mg/kg as a bolus over 0.5 min (n=3). […] Quantitation of Compounds in Plasma. […] The resulting supernates were separated from the precipitated proteins by centrifugation for 10 minutes and transferred to autosampler vials. Samples were either prepared manually, or with the use of the Tomtec automated liquid handler. An aliquot of 5 μL was injected for analysis. The HPLC system consisted of two Shimadzu LC10AD pumps (Columbia, Md.), a Shimadzu SIL-HTC autosampler (Columbia, Md.), and a Hewlett Packard Series 1100 column compartment (Palo Alto, Calif.). The column was a YMC Pro C18 (2.0×50 mm, 3 μm particles, Waters Co., Milford, Mass.), maintained at 60° C. and a flow rate of 0.3 ml/min. The mobile phase consisted of 10 mM ammonium formate and 0.1% formic acid in water (A) and 100% 10 mM ammonium formate and 0.1% formic acid in methanol (B). […] The mobile phase was then returned to initial conditions and the column re-equilibrated for 1 minute. Total analysis time was 4 minutes. The HPLC was interfaced to a Micromass Quattro LC. Ultra high purity nitrogen was used as the nebulizing and desolvation gas at flow rates of 100 L/hr for nebulization and 1100 L/hr for desolvation. The desolvation temperature was 300° C. and the source temperature was 150° C. Data acquisition utilized selected reaction monitoring (SRM). Ions representing the (M+H)^+ species for the compound and the internal standard were selected in MS 1 and collisionally dissociated with argon at a pressure of 2×10^−3 torr to form specific product ions which were subsequently monitored by MS2.
For accuracy, the determined measure of viral inhibition is an EC50; but the minimum plasma concentrations which should be maintained in a patient is generally believed to be at least four or five fold higher. […] Lower is better. • 4) Estimating potential exposure in man by measuring parameters such as AUC and rate of clearance by oral and iv dosing in rats. High exposure and low clearance was desired.
The rat model is an initial model used to assess potential for exposure in man.

The mark [3] stands for this setting: Human immunodeficiency virus 1, HeLa-CD4/CCR5, 72 h, read-out: EC50 Group from Table 1, HeLa CD4 CCR5 cells, luciferase reporter virus, harvested 72 h after infection.
The mark [4] stands for this setting: Human immunodeficiency virus 1, HeLa-CD4/CCR5, read-out: EC50 category, HIV-1 single-round reporter virus assay, category 1/2/3 per Table A1 key.
Where [5] appears, read: Human immunodeficiency virus 1, HeLa-CD4/CCR5, read-out: EC50 Group from Table 1, Table 2-1, HeLa CD4 CCR5 cells, single-round luciferase reporter virus.
[6] abbreviates: Human immunodeficiency virus 1, HeLa-CD4/CCR5, read-out: EC50 Group from TABLE 1, HeLa CD4 CCR5 cells, single-round infectious luciferase reporter virus.

Where two headings read alike, the source gives them in different places. Some results are limits rather than exact numbers.

The term EC50 denotes the midpoint of the concentration-response curve. As usually defined, the AUC(0-t) is exposure summed from dosing to a finite time, without extrapolation to infinity. Turning to `C[C@@H]1CN(C(=O)C(=O)c2c[nH]c3c(-c4ncco4)ccnc23)CCN1C(=O)c1ccccc1` [Example 353], in the data set on HIV-1 (setting [3]), the EC50 was under 1000 nM. In the data set on HIV-1 (setting [4]), the half-maximal effective concentration (EC50) was in the range of 0.2 to 1000 nM. Further, in the data set with HeLa cells, the “CC50 > 100 uM” value is “Yes”. In addition, the “HLM predicted human clearance class” value in data set [1] was “Low (0-0.100)”. In data set [2], this compound came in with a clearance of 5.6 ± 1.1 mL/min/kg and an AUC(0-t) of 1360 ± 307 µg·h/mL.

As for `COc1cnc(-n2cnc(C)n2)c2[nH]cc(C(=O)C(=O)N3CCN(C(=O)c4ccccc4)[C@H](C)C3)c12` [Example 317], in the data set with HIV-1 (setting [5]), the EC50 was under 1000 nM. The EC50 with HIV-1 (setting [4]) was under 0.2 nM. Moreover, the “CC50 > 100 uM” value with HeLa cells is reported as “Yes”. In addition, the “HLM predicted human clearance class” value in data set [1] is “Low (0-0.100)”. In data set [2], this compound had a clearance of 1.9 ± 0.26 mL/min/kg and an exposure AUC(0-t) of 43 ± 12 µg·h/mL.

Turning to `C[C@@H]1CN(C(=O)C(=O)c2c[nH]c3c(-c4nccs4)ccnc23)CCN1C(=O)c1ccccc1` [Example 354], the EC50 in the data set with HIV-1 (setting [3]) was under 1000 nM. In addition, the half-maximal effective concentration (EC50) in the data set on HIV-1 (setting [4]) lay within 0.2 to 1000 nM. The “CC50 > 100 uM” value in the data set on HeLa cells is listed as “Yes”. In addition, the “HLM predicted human clearance class” value in data set [1] was “Low (0-0.100)”. Moreover, in data set [2], the clearance stood at 11.2 ± 0.8 mL/min/kg and the AUC(0-t) was determined as 1.26 µg·h/mL.

Regarding `COc1cnc(-n2cncn2)c2[nH]cc(C(=O)C(=O)N3CCN(C(=O)c4ccccc4)CC3)c12` [Example 187, 1-benzoyl-4-[(4-methoxy-7-(1,2,4-triazol-1-yl)-6-azaindol-3-yl)-oxoacetyl]piperazine], in the data set on HIV-1 (setting [6]), the 50% effective concentration (EC50) is under 1000 nM. Moreover, the EC50 in the data set on HIV-1 (setting [4]) is under 0.2 nM. Also, the “CC50 > 100 uM” value in the data set with HeLa cells is recorded as “Yes”. Moreover, the “HLM predicted human clearance class” value in data set [1] is “Low (0-0.100)”. In data set [2], this compound came in with a clearance of 2.4 ± 0.5 mL/min/kg and an AUC(0-t) of 22.4 ± 7.2 µg·h/mL.

`COc1cnc(-n2cc(C)nn2)c2[nH]cc(C(=O)C(=O)N3CCN(C(=O)c4ccccc4)[C@H](C)C3)c12` [Example 326]: in the data set with HIV-1 (setting [5]), the EC50 is under 1000 nM. The EC50 in the data set on HIV-1 (setting [4]) is under 0.2 nM. For the same compound, the “CC50 > 100 uM” value with HeLa cells was “Yes”. The “HLM predicted human clearance class” value in data set [1] was “Low (0-0.100)”. In data set [2], this compound gave a clearance of 8.3 mL/min/kg and an AUC(0-t) of 9.8 ± 2.9 µg·h/mL.

As for `Nc1ccn(-c2ncc(F)c3c(C(=O)C(=O)N4CCN(C(=O)c5ccccc5)CC4)c[nH]c23)n1` [Example 309], the EC50 in the data set on HIV-1 (setting [6]) was under 1000 nM. In addition, in the data set on HIV-1 (setting [4]), the EC50 was under 0.2 nM. Besides, in the data set on HeLa cells, the “CC50 > 100 uM” value is listed as “Yes”. Further, the “HLM predicted human clearance class” value in data set [1] is recorded as “Low (0-0.100)”. Further, in data set [2], the clearance was found to be 34.3 ± 2.6 mL/min/kg and the AUC(0-t) amounted to 0.09 ± 0.05 µg·h/mL.

Regarding `Cc1ccn(-c2ncc(F)c3c(C(=O)C(=O)N4CCN(C(=O)c5ccccc5)CC4)c[nH]c23)n1` [Example 310], the 50% effective concentration (EC50) with HIV-1 (setting [6]) is under 1000 nM. Besides, the EC50 in the data set with HIV-1 (setting [4]) was under 0.2 nM. Also, the “CC50 > 100 uM” value in the data set on HeLa cells is reported as “Yes”. Besides, the “HLM predicted human clearance class” value in data set [1] is “Low (0-0.100)”. Further, in data set [2], the clearance is 16.5 ± 3.3 mL/min/kg and the area under the curve AUC(0-t) is 2.1 ± 0.4 µg·h/mL.

`COc1cnc(-c2ncon2)c2[nH]cc(C(=O)C(=O)N3CCN(C(=O)c4ccccc4)CC3)c12` [Example 226]: the EC50 is under 1000 nM in the data set with HIV-1 (setting [6]) and under 0.2 nM in the data set on HIV-1 (setting [4]). Also, in the data set with HeLa cells, the “CC50 > 100 uM” value was “Yes”. Also, the “HLM predicted human clearance class” value in data set [1] was “Low (0-0.100)”. In addition, the clearance in data set [2] was found to be 24.5 ± 3 mL/min/kg. The same compound had an exposure AUC(0-t) in data set [2] of 0.5 ± 0.13 µg·h/mL.

For `COc1cnc(-n2ccnn2)c2[nH]cc(C(=O)C(=O)N3CCN(C(=O)c4ccccc4)CC3)c12` [Example 188, 1-benzoyl-4-[(4-methoxy-7-(1,2,3-triazol-1-yl)-6-azaindol-3-yl)-oxoacetyl]piperazine], the EC50 in the data set on HIV-1 (setting [6]) was under 1000 nM. Also, in the data set with HIV-1 (setting [4]), the 50% effective concentration (EC50) is under 0.2 nM. Besides, the “CC50 > 100 uM” value in the data set on HeLa cells was “Yes”. Further, in data set [1], the “HLM predicted human clearance class” value was “Low (0-0.100)”. In data set [2], the clearance was determined as 2.4 ± 0.08 mL/min/kg and the AUC(0-t) was determined as 20 ± 4.6 µg·h/mL.
